Reference: patent EP0025528A1, “1-(2-Acetylphenylthio)-3-alkylamino-2-propanols and their acid-addition salts, process for their preparation and medicines containing them” (A. Nattermann & Cie. GmbH, priority 1979, dated 1981)
Read-outs that look alike come from different tables or passages of the source.

Columns and labels:
[1] = in vivo; settings: for LD50 at 168 h: mouse
Excerpt: Die akute Toxizität wurde an NMRI-Mäusen durch intravenöse bzw. orale Gabe von steigenden Dosen der erfindungsgemäßen Verbindung ermittelt.

[2] = system: Narkotisierte Katze; test: Anaesthetised cat: inhibition of isoprenaline-induced tachycardia (competitive ß-adrenergic antagonism in vivo); parameters: species or system Katzen; settings: Felis catus, read-out: ED50 Hemmung der Isoprenalin-induzierten Herzfrequenzsteigerung
Excerpt: Zum Nachweis des kompetitiven ß-adrenergischen Antagonismus in vivo wurden mischrassige Katzen beiderlei Geschlechts und in Chloralose-Pentobarbitalnarkose verwendet. […] Die Registrierung erfolgte über ein Stathamelement aus einem Beckman Dynograph Typ R. Aus der Blutdruckamplitude wurde mit Hilfe eines Kardiotachometers die Herzfrequenz abgenommen und auf einem weiteren Kanal des Dynographen aufgezeichnet. Die Applikation der Testlösungen erfolgte über einen Katheter in die linke Vena femoralis. Es wurde die inhibierende Wirkung ansteigender Testsubstanz-Dosen auf die durch i.v.Gabe von 0,5 gg Isoprenalin/kg Körpergewicht induzierte Tachykardie bzw. Hypotonie (Blutdrucksenkung) geprüft. Als ED50-Werte wurden in der Tabelle die Dosen der Referenz- bzw. erfindungsgemäßen Verbindung eingetragen, die die Isoprenalineffekte jeweils auf die Hälfte reduzierten.

[3] = system: Reserpinisierte Ratte; test: Intrinsic sympathomimetic activity (ISA) in reserpinised anaesthetised rat; format: in vivo, Wistar-Ratten; settings: intravenous; maximal heart-rate increase (mean of 6 animals) relative to 1,0 µg Isoprenalin/kg i.v.; reserpine 5 mg/kg i.p. 24 h before
Method: Die Tiere bekamen 24 Stunden vor Versuchsbeginn 5 mg Reserpin/kg intraperitoneal. Die Herzfrequenz wurde aus der Blutdruckamplitude (Polyäthylenkatheter mit aufgesetztem Stathamelement in der rechten Arteria femoralis) mit Hilfe eines Kardiotachometers abgenommen und auf einem Schreiber fortlaufend registriert. Die Applikation der Testlösungen erfolgte über einen Katheter in der linken Vena femoralis. Es wurden von jeder Testverbindung vier ansteigende Dosen getrennt jeweils an sechs verschiedenen Tieren geprüft.
Die maximale Steigerung der Herzfrequenz (Mittelwert aus 6 Tieren) durch die einzelnen Testverbindungen wurde als Maß für ihre agonistische Aktivität genommen und in Prozent der Frequenzsteigerung durch 1,0 µg Isoprenalin/kg Körpergewicht i.v. errechnet.

[4] = intravenous, cat under chloralose-pentobarbital anaesthesia, isoprenaline 0,5 gg/kg i.v., dose halving the isoprenaline effect

SMILES	selectivity ratio ([1]; iv)	LD50 at 168 h ([1]; iv) [mg/kg]	LD50 at 168 h ([1]; po) [mg/kg]	ED50 [2, 4] [mg/kg]	ß-sympathomimetische Eigenaktivität (ISA) in % der sympathomimetischen Aktivität von Isoprenalin [3] [%]	ED50 ([2]; iv) [mg/kg]
CC(=O)c1ccccc1SCC(O)CNC(C)(C)C (racemic) [Beispiel 1, 1-(2-Acetylphenylthio)-3-tert.-butyl-amino-2-propanol]	2520	111	667	0.044	33	–
CC(C)NCC(O)COc1cccc2ccccc12 (centres unmarked) [Propranolol]	–	–	–	–	0	0.017
CC(=O)Nc1ccc(OCC(O)CNC(C)C)cc1 (centres unmarked) [Practolol]	1030	148	–	0.144	54	–
